# Laboratory results from US20230085307A1, “PYRIDAZINONE COMPOUND AND HERBICIDE” (NISSAN CHEMICAL CORPORATION, priority 2019, published 2023).
# Legend:
# barnyard grass [1] = test: Test Example 5: herbicidal effect by foliage application, plastic box (Table 20, symbol H); format: in vivo, barnyard grass (Echinochloa crus-galli); conditions: foliage application, 221 g/ha, evaluated three weeks after application
# Procedure, shortened: (§1)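 Post-emergence foliar test in sterilized diluvial soil. Compound applied as water-diluted emulsion at a predetermined rate to 14-day-old plants; evaluation at three weeks.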
# green foxtail [2] = test: Test Example 5: herbicidal effect by foliage application, plastic box (Table 20, symbol G); format: in vivo, green foxtail (Setaria viridis); conditions: foliage application, 221 g/ha, evaluated three weeks after application
# Procedure, shortened: as §1
# Italian ryegrass [3] = test: Test Example 5: herbicidal effect by foliage application, plastic box (Table 20, symbol K); format: in vivo, Italian ryegrass (Lolium multiflorum); conditions: foliage application, 221 g/ha, evaluated three weeks after application
# Procedure, shortened: as §1
# lambsquarters [4] = test: Test Example 4: herbicidal effect by soil treatment (Table 19, symbol O); format: in vivo, lambsquarters (Chenopodium album); conditions: amount of applied herbicide 221 g/ha
# Procedure, shortened: (§2)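 Scoring uses the grading scale of an earlier test, three weeks post-application. Treatment consists of spraying a diluted emulsion formulation across the surface of sterilized diluvial soil in which seeds are buried near 1.5 cm deep; boxes are kept in a greenhouse between 25° C. and 30° C.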
# blackgrass [5] = test: Test Example 5: herbicidal effect by foliage application, plastic box (Table 20, symbol J); format: in vivo, blackgrass (Alopecurus myosuroides); conditions: foliage application, 221 g/ha, evaluated three weeks after application
# Procedure, shortened: as §1
# redroot pigweed [6] = test: Test Example 5: herbicidal effect by foliage application, plastic box (Table 20, symbol N); format: in vivo, redroot pigweed (Amaranthus retroflexus); conditions: foliage application, 221 g/ha, evaluated three weeks after application
# Procedure, shortened: as §1
# windgrass [7] = test: Test Example 5: herbicidal effect by foliage application, plastic box (Table 20, symbol L); format: in vivo, windgrass (Apera spica-venti); conditions: foliage application, 221 g/ha, evaluated three weeks after application
# Procedure, shortened: as §1
# chickweed [8] = test: Test Example 4: herbicidal effect by soil treatment (Table 19, symbol P); format: in vivo, common chickweed (Stellaria media); conditions: amount of applied herbicide 221 g/ha
# Procedure, shortened: as §2
# barnyard grass [9] = test: Test Example 3: herbicidal effect by foliage application, Wagner pot (Table 18, symbol H); format: in vivo, barnyard grass (Echinochloa crus-galli); conditions: amount of applied herbicide 221 g/ha
# Procedure, shortened: (§3)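 Plants were sown in alluvial soil held under 0.1–0.5 cm standing water and grown 14 days in a greenhouse at 25–30 °C. An emulsifiable formulation, water-diluted to the set dose, was then sprayed onto the foliage, and effects were scored three weeks later using previously defined criteria.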
# persian speedwell [10] = test: Test Example 4: herbicidal effect by soil treatment (Table 19, symbol R); format: in vivo, Persian speedwell (Veronica persica); conditions: amount of applied herbicide 221 g/ha
# Procedure, shortened: as §2
# southern crabgrass [11] = test: Test Example 5: herbicidal effect by foliage application, plastic box (Table 20, symbol F); format: in vivo, southern crabgrass (Digitaria ciliaris); conditions: foliage application, 221 g/ha, evaluated three weeks after application
# Procedure, shortened: as §1
# persian speedwell [12] = test: Test Example 5: herbicidal effect by foliage application, plastic box (Table 20, symbol R); format: in vivo, Persian speedwell (Veronica persica); conditions: foliage application, 221 g/ha, evaluated three weeks after application
# Procedure, shortened: as §1
# rice flat sedge = test: Test Example 3: herbicidal effect by foliage application, Wagner pot (Table 18, symbol E); format: in vivo, rice flat sedge (Cyperus iria); conditions: amount of applied herbicide 221 g/ha
# Procedure, shortened: as §3
# chickweed [13] = test: Test Example 5: herbicidal effect by foliage application, plastic box (Table 20, symbol P); format: in vivo, common chickweed (Stellaria media); conditions: foliage application, 221 g/ha, evaluated three weeks after application
# Procedure, shortened: as §1
# wild oat [14] = test: Test Example 5: herbicidal effect by foliage application, plastic box (Table 20, symbol I); format: in vivo, wild oat (Avena fatua); conditions: foliage application, 221 g/ha, evaluated three weeks after application
# Procedure, shortened: as §1
# lambsquarters [15] = test: Test Example 5: herbicidal effect by foliage application, plastic box (Table 20, symbol O); format: in vivo, lambsquarters (Chenopodium album); conditions: foliage application, 221 g/ha, evaluated three weeks after application
# Procedure, shortened: as §1
# redroot pigweed [16] = test: Test Example 4: herbicidal effect by soil treatment (Table 19, symbol N); format: in vivo, redroot pigweed (Amaranthus retroflexus); conditions: amount of applied herbicide 221 g/ha
# Procedure, shortened: as §2
# green foxtail [17] = test: Test Example 4: herbicidal effect by soil treatment (Table 19, symbol G); format: in vivo, green foxtail (Setaria viridis); conditions: amount of applied herbicide 221 g/ha
# Procedure, shortened: as §2
# velvetleaf [18] = test: Test Example 5: herbicidal effect by foliage application, plastic box (Table 20, symbol M); format: in vivo, velvetleaf (Abutilon theophrasti); conditions: foliage application, 221 g/ha, evaluated three weeks after application
# Procedure, shortened: as §1
# Chinese sprangletop = test: Test Example 3: herbicidal effect by foliage application, Wagner pot (Table 18, symbol D); format: in vivo, chinese sprangletop (Leptochloa chinensis); conditions: amount of applied herbicide 221 g/ha
# Procedure, shortened: as §3
# Italian ryegrass [19] = test: Test Example 4: herbicidal effect by soil treatment (Table 19, symbol K); format: in vivo, Italian ryegrass (Lolium multiflorum); conditions: amount of applied herbicide 221 g/ha
# Procedure, shortened: as §2
# blackgrass [20] = test: Test Example 4: herbicidal effect by soil treatment (Table 19, symbol J); format: in vivo, blackgrass (Alopecurus myosuroides); conditions: amount of applied herbicide 221 g/ha
# Procedure, shortened: as §2
# wild oat [21] = test: Test Example 4: herbicidal effect by soil treatment (Table 19, symbol I); format: in vivo, wild oat (Avena fatua); conditions: amount of applied herbicide 221 g/ha
# Procedure, shortened: as §2
# velvetleaf [22] = test: Test Example 4: herbicidal effect by soil treatment (Table 19, symbol M); format: in vivo, velvetleaf (Abutilon theophrasti); conditions: amount of applied herbicide 221 g/ha
# Procedure, shortened: as §2
# southern crabgrass [23] = test: Test Example 4: herbicidal effect by soil treatment (Table 19, symbol F); format: in vivo, southern crabgrass (Digitaria ciliaris); conditions: amount of applied herbicide 221 g/ha
# Procedure, shortened: as §2
# windgrass [24] = test: Test Example 4: herbicidal effect by soil treatment (Table 19, symbol L); format: in vivo, windgrass (Apera spica-venti); conditions: amount of applied herbicide 221 g/ha
# Procedure, shortened: as §2
# barnyard grass [25] = test: Test Example 4: herbicidal effect by soil treatment (Table 19, symbol H); format: in vivo, barnyard grass (Echinochloa crus-galli); conditions: amount of applied herbicide 221 g/ha
# Procedure, shortened: as §2
smiles,measurement,setting,value
Cc1ccc2sc(-c3ccc(C#N)cc3)c(-c3c(O)c(C)nn(C)c3=O)c2c1 [2-146],herbicidal effect on H: barnyard grass (criteria 0-5),barnyard grass [1],4 (Herbicidal rate of 70% or more and less than 90%)
same,herbicidal effect on G: green foxtail (criteria 0-5),green foxtail [2],4 (Herbicidal rate of 70% or more and less than 90%)
same,herbicidal effect on K: Italian ryegrass (criteria 0-5),Italian ryegrass [3],4 (Herbicidal rate of 70% or more and less than 90%)
same,"O: lambsquarters, herbicidal effect rating",lambsquarters [4],0 (Herbicidal rate of 5% or less (almost no effect))
same,herbicidal effect on J: blackgrass (criteria 0-5),blackgrass [5],3 (Herbicidal rate of 40% or more and less than 70%)
same,herbicidal effect on N: redroot pigweed (criteria 0-5),redroot pigweed [6],5 (Herbicidal rate of 90% or more (almost completely withered))
same,herbicidal effect on L: windgrass (criteria 0-5),windgrass [7],0 (Herbicidal rate of 5% or less (almost no effect))
same,"P: chickweed, herbicidal effect rating",chickweed [8],5 (Herbicidal rate of 90% or more (almost completely withered))
same,herbicidal effect on H: barnyard grass,barnyard grass [9],4 (Herbicidal rate of 70% or more and less than 90%)
same,"R: persian speedwell, herbicidal effect rating",persian speedwell [10],5 (Herbicidal rate of 90% or more (almost completely withered))
same,herbicidal effect on F: southern crabgrass (criteria 0-5),southern crabgrass [11],0 (Herbicidal rate of 5% or less (almost no effect))
same,herbicidal effect on R: persian speedwell (criteria 0-5),persian speedwell [12],5 (Herbicidal rate of 90% or more (almost completely withered))
same,herbicidal effect on E: rice flat sedge,rice flat sedge,3 (Herbicidal rate of 40% or more and less than 70%)
same,herbicidal effect on P: chickweed (criteria 0-5),chickweed [13],5 (Herbicidal rate of 90% or more (almost completely withered))
same,herbicidal effect on I: wild oat (criteria 0-5),wild oat [14],3 (Herbicidal rate of 40% or more and less than 70%)
same,herbicidal effect on O: lambsquarters (criteria 0-5),lambsquarters [15],3 (Herbicidal rate of 40% or more and less than 70%)
same,"N: redroot pigweed, herbicidal effect rating",redroot pigweed [16],4 (Herbicidal rate of 70% or more and less than 90%)
same,"G: green foxtail, herbicidal effect rating",green foxtail [17],0 (Herbicidal rate of 5% or less (almost no effect))
same,herbicidal effect on M: velvetleaf (criteria 0-5),velvetleaf [18],2 (Herbicidal rate of 20% or more and less than 40%)
same,herbicidal effect on D: Chinese sprangletop,Chinese sprangletop,0 (Herbicidal rate of 5% or less (almost no effect))
same,"K: Italian ryegrass, herbicidal effect rating",Italian ryegrass [19],0 (Herbicidal rate of 5% or less (almost no effect))
same,"J: blackgrass, herbicidal effect rating",blackgrass [20],0 (Herbicidal rate of 5% or less (almost no effect))
same,"I: wild oat, herbicidal effect rating",wild oat [21],0 (Herbicidal rate of 5% or less (almost no effect))
same,"M: velvetleaf, herbicidal effect rating",velvetleaf [22],0 (Herbicidal rate of 5% or less (almost no effect))
same,"F: southern crabgrass, herbicidal effect rating",southern crabgrass [23],0 (Herbicidal rate of 5% or less (almost no effect))
same,"L: windgrass, herbicidal effect rating",windgrass [24],0 (Herbicidal rate of 5% or less (almost no effect))
same,"H: barnyard grass, herbicidal effect rating",barnyard grass [25],0 (Herbicidal rate of 5% or less (almost no effect))
